Test system: HIV-1IIIB
Test: Resistance selection by serial passage in CEM-SS cells
Format: cell-based
Protocol: In vitro studies designed to select CMX157 resistant mutants use wild-type HIV-1 as the primary inoculum and TFV as a positive control. These studies are conducted by serial passage of HIV-1IIIB and HIV-1RF in CEM-SS cells using increasing concentrations of TFV or CMX157. Drug levels are increased following detection of viral growth at each passage using procedures known to one skilled in the art. Upon completion of each passage, the reverse transcriptase coding region of the viral genome is sequenced to identify any possible resistance-associated mutations that may have emerged within the virus pool.

[1] = Passage 1, Tenofovir 10 μM (2× IC50)
[2] = Passage 2, Tenofovir 20 μM (4× IC50)
[3] = Passage 3, Tenofovir 30 μM (6× IC50)
[4] = Passage 4, Tenofovir 40 μM (8× IC50)
[5] = Passage 5, Tenofovir 40 μM (8× IC50)
[6] = Passage 6, Tenofovir 40 μM (8× IC50)
[7] = Passage 7, Tenofovir 45 μM (9× IC50)
[8] = Passage 8, Tenofovir 50 μM (10× IC50)
[9] = Passage 9, Tenofovir 55 μM (11× IC50)
[10] = Passage 10, Tenofovir 60 μM (12× IC50)

## C[C@H](Cn1cnc2c(N)ncnc21)OCP(=O)(O)O [TFV, (R)-9-(2-phosphonylmethoxypropyl)adenine]
  passage by which K65R was selected: ≤ 8 passage
[1]
  Comments (virus replication): Low-level virus replication observed
  Day of Peak Virus Production: Day 6
  Peak RT activity: (3,525 cpm)
[2]
  Comments (virus replication): Low-level virus replication observed
  Day of Peak Virus Production: Day 7
  Peak RT activity: (2,016 cpm)
[3]
  Comments (virus replication): Low-level virus replication observed
  Day of Peak Virus Production: Day 14
  Peak RT activity: (2,062 cpm)
[4]
  Comments (virus replication): Low-level virus replication observed
  Day of Peak Virus Production: Day 6
  Peak RT activity: (3,109 cpm)
[5]
  Comments (virus replication): Low-level virus replication observed;
  Day of Peak Virus Production: Day 14
  Peak RT activity: (1,788 cpm)
[6]
  Comments (virus replication): Robust virus replication observed;
  Day of Peak Virus Production: Day 19
  Peak RT activity: (23,508)
[7]
  Comments (virus replication): Robust virus replication observed; minor
  Day of Peak Virus Production: Day 7
  Peak RT activity: (24,408 cpm)
[8]
  Comments (virus replication): Robust virus replication observed; E404D
  Day of Peak Virus Production: Day 9
  Peak RT activity: (57,455 cpm)
[9]
  Comments (virus replication): Robust virus replication observed;
  Day of Peak Virus Production: Day 11
  Peak RT activity: (25,458 cpm)
[10]
  Comments (virus replication): Robust virus replication observed;
  Day of Peak Virus Production: Day 7
  Peak RT activity: (31,549 cpm)
